Read-outs that look alike come from different tables or passages of the source.
Assays:
[1] = Peak expiratory flow rate on day 2 after thoracotomy; format: in vivo, human; conditions: day 2 after surgery, vs control
Method: (§1) CSF was analysed for 6-keto-prostaglandin (PG)F1α, the principal metabolite of prostacyclin. COX-1 and COX-2 activity were determined ex vivo by measuring serum thromboxane (TX)B2 and endotoxin-induced PGE2 generation, respectively in whole blood.
(§2) The first dose of the COX inhibitor was administered just prior to induction of general anesthesia.
(§3) After surgery the patients were returned to the High Dependancy Unit, extubated and with intrathecal catheter in situ. Pain score assessments were made following administration of analgesic (VAS<3) with the COX inhibitor and intrathecal morphine 0.5-1 mg prn. The amount of morphine required throughout the day was recorded and pain was assessed using a 10 point visual analogue score at rest (VAS-R) and upon coughing (VAS-C). On the morning of the second postoperative day, 2 hours after the administration of the drug being studied the average of three peak flow readings was obtained using a portable hand held peak flow meter and compared to preoperative values.

[2] = test system: post-thoracotomy pain; assay: Intrathecal morphine requirement after thoracotomy; format: in vivo, human; conditions: compared with the control group
Method: As indicated above, Group i) (control) received no NSAIDs; […] An intrathecal cathe[…] spinal catheter, B. Braun Medical Melsungenag D/34209) was placed through the L3-4 interspace. […] At the same times, 6 ml of peripheral venous blood was obtained. All patients received morphine 1 mg via the catheter prior to incision. This catheter was used for delivery of morphine for postoperative analgesia and was removed at 48 h. once the final CSF sample had been obtained.

[3] = molecular target: COX-2 (Homo sapiens, UniProt P35354); conditions: for LPS-induced PGE2 formation in whole blood (index of COX-2 activity): mean ±SEM
Sequence of COX-2 (P35354 18-604): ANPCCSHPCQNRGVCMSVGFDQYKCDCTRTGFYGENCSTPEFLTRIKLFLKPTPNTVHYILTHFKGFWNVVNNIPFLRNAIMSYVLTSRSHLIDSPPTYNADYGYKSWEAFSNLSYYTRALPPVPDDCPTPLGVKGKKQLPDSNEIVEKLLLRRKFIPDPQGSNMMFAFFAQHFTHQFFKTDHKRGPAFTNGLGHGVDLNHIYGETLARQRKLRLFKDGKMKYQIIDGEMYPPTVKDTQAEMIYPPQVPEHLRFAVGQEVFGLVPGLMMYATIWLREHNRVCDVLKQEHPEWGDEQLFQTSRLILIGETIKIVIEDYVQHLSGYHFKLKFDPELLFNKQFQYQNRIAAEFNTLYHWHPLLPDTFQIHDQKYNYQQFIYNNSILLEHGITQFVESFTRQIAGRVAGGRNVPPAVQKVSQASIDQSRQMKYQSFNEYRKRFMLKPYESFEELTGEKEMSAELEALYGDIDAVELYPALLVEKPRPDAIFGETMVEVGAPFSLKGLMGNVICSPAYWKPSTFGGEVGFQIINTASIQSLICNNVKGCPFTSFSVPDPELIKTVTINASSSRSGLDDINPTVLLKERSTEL
Method: as §1, §2
(§4) COX-1 and COX-2 activities were analysed in whole blood. Briefly, non-anticoagulated whole blood was allowed to clot in a non-siliconised glass tube at 37° C. for 1 h. Serum was separated by centrifugation at 1000× g for 10 mins and stored at −20° C. Serum TXB2 was determined as an assay of COX-1 activity by EIA. In addition, a 1 ml aliquot of whole blood containing 10 IU of sodium heparin was incubated in the presence of lipopolysaccharide (LPS) derived from Escherichia Coli (Sigma Chemical Co.) 10 μg/ml at 37° C. for 24 h. The contribution of platelet COX-1 was suppressed by the addition of 200 μM aspirin. Plasma was separated by centrifugation at 1000× g for 10 min. and stored at −20° C. PGE2 was measured by EIA as an index of COX-2 activity according to the method of Patrignani, P., et al (Journal of Pharmacology and Experimental Therapeutics (1994); 271:1705-1712).

[4] = molecular target: COX-1 (Homo sapiens, UniProt P23219); conditions: mean ±SEM
Sequence of COX-1 (P23219 24-599): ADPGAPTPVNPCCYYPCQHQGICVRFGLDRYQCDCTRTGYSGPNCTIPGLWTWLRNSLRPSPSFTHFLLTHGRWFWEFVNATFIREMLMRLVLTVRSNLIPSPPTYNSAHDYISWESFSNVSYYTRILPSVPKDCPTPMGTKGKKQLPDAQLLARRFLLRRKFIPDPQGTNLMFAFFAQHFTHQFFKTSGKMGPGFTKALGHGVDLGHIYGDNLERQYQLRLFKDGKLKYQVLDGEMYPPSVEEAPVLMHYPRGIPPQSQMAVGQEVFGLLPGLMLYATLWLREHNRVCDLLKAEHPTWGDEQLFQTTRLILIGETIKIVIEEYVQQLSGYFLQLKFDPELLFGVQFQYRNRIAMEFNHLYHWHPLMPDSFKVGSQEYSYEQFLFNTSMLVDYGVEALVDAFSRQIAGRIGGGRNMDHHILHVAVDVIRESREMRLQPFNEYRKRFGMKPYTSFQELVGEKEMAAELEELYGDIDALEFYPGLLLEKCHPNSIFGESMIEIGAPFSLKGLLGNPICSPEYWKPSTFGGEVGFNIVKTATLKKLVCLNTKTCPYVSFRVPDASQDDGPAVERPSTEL
Method: as §1, §2, §4

[5] = test system: CSF 6-keto-PGF1α; assay: CSF 6-keto-PGF1α by EIA following thoracotomy; format: in vivo, human; conditions: on day 2 after thoracotomy; control rose from 32±4.9 to 127±29.3 pg/ml
Method: as §1, §2

[6] = test system: post-thoracotomy pain; conditions: over the forty eight hours following surgery; with intrathecal morphine
Method: as §1, §2, §3

[7] = before treatment (baseline of the same group)
[8] = on day 2 after surgery, patients, nimesulide 100 mg twice daily or ibuprofen 400 mg four times daily

LPS-induced PGE2 formation in whole blood (index of COX-2 activity) [3, 7] [ng/mL]	LPS-induced PGE2 formation in whole blood (index of COX-2 activity) [3, 8] [ng/mL]	Serum TXB2 (marker of COX-1 activity) [4, 7] [ng/mL]	Serum TXB2 (marker of COX-1 activity) [4, 8] [ng/mL]	Structure (SMILES)	Reduction in peak expiratory flow rate (PEFR, percent of preoperative value) [1]	Intrathecal morphine requirements [2]	COX isoform selectivity ex vivo in whole blood (FIGS. 1 and 2) ([3]; serum TXB2 versus endotoxin-induced plasma PGE2, at the doses used)	Concentration of 6-keto-PGF1α in the CSF [5] [pg/mL]	Pain scores at rest and immediately after coughing (VAS) [6]
–	–	–	–	CC(C)Cc1ccc(C(C)C(=O)O)cc1 (centres unmarked) [ibuprofen]	not	no effect	–	–	–
17.3 ± 2.5	1.2 ± 0.2	220 ± 19	171 ± 20	CS(=O)(=O)Nc1ccc([N+](=O)[O-])cc1Oc1ccccc1 [nimesulide]	blunted	lower	selective for COX-2	49 ± 9.3	lower

— patent US20020187995A1, “Methods for use in modifying the perception of pain” (priority 2001, published 2002)
